Patent publication US20240374580A1, “SMALL MOLECULE INHIBITORS OF AUTOPHAGY AND HISTONE DEACTYLASES AND USES THEREOF” (priority 2021, published 2024)
Read-outs that look alike come from different tables or passages of the source.

What was measured:
[1] = Oral availability of ROC-325; conditions: in vivo
From the text: (§1) Example data from our published studies are shown here.

autophagy [2] = assay: Initial preclinical studies of potency against HCQ; conditions: greater than HCQ
From the text: as §1

MV4-11 cells = assay: Transmission electron microscopy of autophagosomes; type: cell-based; conditions: 1 μM
Procedure: FIG. 11. ROC-325 triggers the formation of autophagosomes with undegraded cargo. MV4-11 cells were treated with 1 μM ROC-325 as indicated and visualized by transmission electron microscopy (TEM).
as §1

[3] = test system: broad range of tumor types; conditions: cited from earlier work
[4] = Procedure: FIG. 13. […] Mice were treated with vehicle, ROC-325, or HCQ as indicated daily for 42 consecutive days. […] Mean±SD.
(§2) The majority of lysosomal proteases that control the autophagy-mediated degradation of proteins and organelles require a strict acidic pH microenvironment for their enzymatic activity. Based on this, lysosomal acidity is commonly used as a marker of autophagy status. We treated leukemia cells with ROC-325 and used LysoSensor Green to evaluate the effects of drug treatment on lysosomal pH.

autophagy [5] = assay: Autophagy markers LC3B and p62 after ROC-325; type: cell-based
From the text: as §1

[6] = test system: isolated perfused/ventilated mouse lungs; assay: PAP in isolated perfused/ventilated mouse lungs (ROC-325); conditions: intrapulmonary perfusion for 5 min, 40 mM K+
Procedure: (§3) FIG. 14A-E. ROC-325 has promising therapeutic activity in models of PH. A-C: in vivo intact animal experiments (ROC-325 was administered daily at 10 mg/kg for 4w). (A) Representative record showing right ventricular pressure (RVP) in control and ROC-treated rats during normoxia. […] (B) Representative record showing right ventricular pressure (RVP) in control rats, MCT-injected rats and MCT-injected rats treated with ROC. (C) Summarized data showing right ventricular systolic pressure (RVSP), a surrogate measure for pulmonary arterial systolic pressure ([…]), in control, MCT-rats (treated with vehicle) and MCT-rats treated with ROC. […] D-E: ex vivo experiment using isolated perfused/ventilated mouse lungs (ROC was applied via intrapulmonary perfusion for 5 min). (D) Representative record showing pulmonary arterial pressure (PAP) in isolated perfused/ventilated mouse lung before, during and after intrapulmonary arterial perfusion of 40 mM K+ (40K) in the absence or presence of ROC. (E) Summarized data showing 40K-induced increases in PAP before (control), during (ROC) and after (washout) application of ROC.
(§4) Finally, we tested the therapeutic benefit of ROC-325 in models of experimental PH (FIG. 14). ROC-325 was administered to rats daily at 10 mg/kg for 4w under normoxic and hypoxic conditions. […]

[7] = test system: normal human CD34+ bone marrow (BM) cells
From the text: as §2

[8] = test system: renal proximal tubal endothelial cells (RPTEC)
From the text: as §2

leukemia cells = assay: LysoSensor Green lysosomal pH (confocal microscopy, FACS); type: cell-based; conditions: 1 μM, 6 h
Procedure: FIG. 12. Treatment with ROC-325 leads to lysosomal deacidification. Cells were treated with 1 μM ROC-325 for 6 h, stained with Lysosensor Green and propidium iodide (PI, nuclear counterstain) and then visualized by confocal microscopy.
as §1

MCT-injected rats = assay: RVP/RVSP in control and MCT-injected rats; type: in vivo, rat; conditions: 10 mg/kg daily for 4w
Procedure: as §3, §4

[9] = test system: isolated perfused and ventilated lungs; assay: PAP in isolated perfused and ventilated lungs (CHQ); conditions: 200 μM, intrapulmonary application
Procedure: FIG. 5A-C. […] (A) Left, PAP in isolated perfused and ventilated lungs before, during and after repeated pulmonary arterial perfusion of 40 mM K+ (40K) solution.
(§5) Similarly. […] Additionally.

human PASMC [10] = assay: Autophagy markers P62 and LC3B in PASMC (Western blot, immunofluorescence); type: cell-based; conditions: 20 μM, 24 h
From the text: as §5

rings of rat PA = test system: rings of rat PA
Procedure: Due to the key role of autophagy in the pathogenesis of many diseases, we (the inventors) were very interested in exploring the benefit of autophagy inhibition for other indications beyond cancer. […] Such experiments first quantified the vasorelaxant effect on rings of rat PA (FIG. 2). […] Similarly. […] Additionally. […] Rats were given a subcutaneous (s.c.) injection of 20 mg/kg SU5416 or vehicle, followed by hypoxia (SuHx) for 3 weeks (10% 02) and normoxia for an additional 2 weeks to elicit severe PH. […] The normoxic control group was exposed to room air only (21% 02) for a total of 5 weeks (Nor).

human PASMC [11] = assay: Ca2+ dynamics and whole-cell Ca2+ currents in PASMC; type: cell-based
Procedure: (B) Summarized data showing the amplitude of increase in [Ca2+]cyt induced by application of 10 μM CPA in the absence (first peak) or presence (second peak) of 1.8 mM extracellular Ca2+ (n=44-54 PASMC). […] (D) Summarized data showing [Ca2+]cyt before (basal) and during (ATP) application of ATP in control and CHQ-treated PASMC. Means±SEM, *P<0.05. (E) Summarized data showing ATP-induced increases in [Ca2+]cyt in control and CHQ-treated PASMC. means±SEM *P<0.05. […] Means±SEM, *P<0.05. (G) The current-voltage (I-V) relationship curves constructed from current recordings in PASMC before (Cont), during (CHQ) and after (wash) application of CHQ.
as §5

SuHx-PH rat model = assay: Established PH in the SuHx rat model; type: in vivo; conditions: 50 mg/kg/day for 2 weeks after 3 weeks SuHx
From the text: FIG. 9A-C. […] (A) Representative right ventricular pressure (RVP).
as §5

HPH in rats = assay: Development of HPH in rats (hypoxia 10% O2 for 21 days); type: in vivo, rat; conditions: 50 mg/kg/day, hypoxia 21 days
From the text: (E) Representative H&E images of small PAs in Nor, Nor+CHQ, Hyp and Hyp+CHQ rats.
as §5

[12] = Phase I clinical trial of HCQ with vorinostat, pharmacokinetic analyses; conditions: humans
clinical = conditions: human, in vivo

For Cc1ccc(NCCN(C)CCNc2ccnc3cc(Cl)ccc23)c2c(=O)c3ccccc3sc12 [ROC-325], the oral bioavailability [1] was “orally bioavailable”, the “potency relative to HCQ” value (autophagy [2]) was “approximately 10 fold” and the “autophagosomes with undegraded cargo (TEM)” value (MV4-11 cells) was “triggered the accumulation of autophagosomes with undegraded cargo”. The “single agent anticancer activity compared to HCQ” value ([3]; broad range of tumor types) was “significantly superior single agent anticancer activity”, the “dose needed to inhibit autophagy compared to HCQ” value [3] was “inhibits autophagy at significantly lower doses” and the mouse body weight ([4]; daily for 42 consecutive days) was “No significant loss of mouse body weight”. For the same molecule, the tolerability ([4]; oral, daily, 42 days, mice) was “confirmed its tolerability”, the “autophagy marker LC3B” value (autophagy [5]) was “stimulated the autophagy marker LC3B” and the p62 (autophagy [5]) was “accumulation of p62”. The “high K+-induced pulmonary vasoconstriction (PAP)” value [6] was “acutely inhibits high K+-induced pulmonary vasoconstriction”, the therapeutic selectivity [7] was “strong therapeutic selectivity” and the therapeutic selectivity [8] was “strong therapeutic selectivity”. The “lysosomal pH (LysoSensor Green fluorescence)” value (leukemia cells) was “stimulated lysosomal deacidification”, the “basal hemodynamics (RVP) in control rats” value (MCT-injected rats) was “no effect on basal hemodynamics” and the “development of experimental PH (RVSP)” value (MCT-injected rats; MCT-injected rats) was “significantly inhibited the development of experimental PH”.
With CCN(CC)CCCC(C)Nc1ccnc2cc(Cl)ccc12 (stereo not drawn) [CHQ, chloroquine] the “40K-induced increases in PAP” value [9] was “could antagonize the 40K-induced increases in PAP”, the “pulmonary vasoconstriction induced by high K+ or hypoxia” value [9] was “attenuates pulmonary vasoconstriction induced by high K+ concentrations or hypoxia” and the “autophagy (p62 and LC3B)” value (human PASMC [10]) was “inhibited autophagy”. The “role of the endothelium in the vasorelaxant effect” value (rings of rat PA; 200 μM, endothelium-intact or endothelium-denuded rings pre-constricted with 1 μM PE) was “endothelium independent”, the “effect of K+ channel blockade on pulmonary vasodilation” value (rings of rat PA; 200 μM, rings pretreated with paxilline, TEA or ChTX) was “does not affect the ability of CHQ to induce pulmonary vasodilation” and the “isometric tension in isolated PA rings” value (rings of rat PA; rings constricted with 1 μM phenylephrine (PE)) was “decreased isometric tension”. For the same molecule, the “store-operated Ca2+ entry” value (human PASMC [11]; 200 μM, 10 μM CPA) was “inhibits store-operated Ca2+ entry”, the “whole-cell Ca2+ currents” value (human PASMC [11]; test pulse of +10 mV from −70 mV) was “reduces whole-cell Ca2+ currents” and the “progression of established PH” value (SuHx-PH rat model) was “significant therapeutic benefit against established PH progression”. For the same molecule, the “reversal of established PH” value (SuHx-PH rat model) was “partially reversed established PH”, the PA wall thickness (HPH in rats) was “reduced PA wall thickness” and the “right ventricular systolic pressure (RVSP)” value (HPH in rats) was “significantly reduced RVSP”.
With CCN(CCO)CCCC(C)Nc1ccnc2cc(Cl)ccc12 (stereo not drawn) [HCQ, hydroxychloroquine] the “maximum tolerated dose (MTD)” value [12] was 600 mg/day, the mouse body weight ([4]; mouse, in vivo) was “No significant loss of mouse body weight” and the Cmax (clinical) was less than 3000 nM.
